{
  "source": "patent US7824668B2",
  "about": "“Compositions for attracting stink bugs” (Cotton Incorporated, priority 2006, dated 2010)",
  "assay_type_in_all_cases": "in vivo",
  "key": {"Euschistus servus": {"test_system": "Euschistus servus", "assay": "Tedders trap field capture of Euschistus servus, pheromone with vs without geraniol synergist", "conditions": "160 mg geraniol + 200 mg methyl (2E,4Z)-decadienoate vs pheromone alone", "description": "An experiment was carried out near Starkville, Oktibbeha County in Mississippi to study the response of Euschistus servus to a pheromone synergist. Geraniol was used as a synergist with methyl (2E,4Z)-decadienoate, a pheromone for Euschistus servus. Tedders traps were used in the experiment. Each treatment trap was baited with 160 mg geraniol and 200 mg methyl (2E,4Z)-decadienoate and each control trap was baited with 200 mg methyl (2E,4Z)-decadienoate. The control trap contained no geraniol or any other synergist. The trapped adult insects of Euschistus servos were collected on a daily basis and their total numbers were counted. Statistical analysis was done using the Least Squares means separation from the SAS GLM procedure."}, "Euschistus species": {"test_system": "Euschistus species", "assay": "Tedders trap field capture of Euschistus species, pheromone with vs without geraniol synergist", "conditions": "soybean field, Monticello, Ark.; 160 mg geraniol + 200 mg methyl (2E,4Z)-decadienoate vs pheromone alone; Pr>t 0.09", "description": "An experiment was carried out in Monticello, Ark. to study the response of Euschistus species in a soybean field to a pheromone synergist. Geraniol was used as a synergist to methyl (2E,4Z)-decadienoate, which is a pheromone for both Euschistus species. […] traps were used in the experiment. Each treatment trap was baited with 160 mg geraniol and 200 mg methyl (2E,4Z)-decadienoate and each control trap was baited with 200 mg methyl (2E,4Z)-decadienoate. The control traps contained no geraniol or any other synergist. The trapped adult insects of Euschistus species were collected on a daily basis and their total numbers were counted. Statistical analysis was done using the Least Squares means separation from the SAS GLM procedure."}, "Euschistus tristigmus": {"test_system": "Euschistus tristigmus", "assay": "Tedders trap field capture of Euschistus tristigmus, pheromone with vs without geraniol synergist", "conditions": "soybean field; 160 mg geraniol + 200 mg methyl (2E,4Z)-decadienoate vs 200 mg methyl (2E,4Z)-decadienoate alone; Pr>t 0.04", "description": "An experiment was carried out near Starkville, Oktibbeha County in Mississippi to study the response of Euschistus tristigmus in a crop field to a pheromone synergist. The crop field was a soybean field bordered on two sides by woods. Geraniol was used as a synergist with methyl (2E,4Z)-decadienoate, a pheromone for Euschistus tristigmus. Tedders traps were used in the experiment. Each trap was baited with 160 mg geraniol and 200 mg methyl (2E,4Z)-decadienoate and each control trap was baited with 200 mg methyl (2E,4Z)-decadienoate. The control trap contained no geraniol or other synergists. The trapped adult insects of Euschistus tristigmus were collected on a daily basis and the total number of trapped insects was counted. Statistical analysis was done using the Least Squares means separation from the SAS GLM procedure."}},
  "data": [
    {"smiles": "CC(C)=CCC/C(C)=C/CO", "note": "[geraniol, E-(3,7)-Dimethyl-2,6-octadien-1-ol]", "values": [
      {"measurement": "increase in the number of captured bugs", "setting": "Euschistus servus; crepe myrtle field, Pr>t 0.51", "result": "~72", "unit": "%"},
      {"measurement": "increase in the number of captured bugs", "setting": "Euschistus servus; field of mixed crops of plum and okra, Pr>t 0.02", "result": "~92", "unit": "%"},
      {"measurement": "increase in the number of captured bugs", "setting": "Euschistus servus; new-peach field, Pr>t 0.05", "result": "~251", "unit": "%"},
      {"measurement": "increase in the number of captured bugs", "setting": "Euschistus servus; old-peach field, Pr>t 0.02", "result": "~122", "unit": "%"},
      {"measurement": "increase in the number of captured bugs", "setting": "Euschistus servus; soybean field, Pr>t 0.61", "result": "~14", "unit": "%"},
      {"measurement": "increase in the number of captured bugs", "setting": "Euschistus species", "result": "~269", "unit": "%"},
      {"measurement": "increase in the number of captured Euchistus tristigmus", "setting": "Euschistus tristigmus", "result": "~75", "unit": "%"}
    ]}
  ]
}
